pIC50: −log10 of the molar value.
Experiments:
DLD1 = experiment: CellTiter-Blue cell-based survival/proliferation assay, DLD1; conditions: Homo sapiens, DLD-1; DLD_1 colorectal tumor cell line, 48 h
Procedure: (§1) Cell-Based Proliferation Screening of Compounds
(§2) CellTiter-Blue cell-based survival/proliferation assay (Promega G8080) was performed on tumor cell lines. A total of 1·10^4 cells/well/50 μl were seeded in a 96-wells plate. Treatment was initiated by addition of a 2× drug solution of 1/10 serial dilutions ranging from 0 to 10 μM. Cells were grown for 48 h at 37° C. and then incubated with 10 μl/well of Promega CellTiter-Bleue reagent for 4 h at 37° C. The amount of resorufin dye formed was quantified by its fluorescence emission at 590 nm using a scanning multiwell spectrophotometer (OPTIMA, BMG labtech, France). A blank well without cells was used as a background control for the spectrophotometer.

DU145 = experiment: CellTiter-Blue cell-based survival/proliferation assay, DU145; conditions: Homo sapiens, DU-145; DU145 prostate tumor cell line, 48 h
Procedure: as §1, §2

HEP2 = experiment: CellTiter-Blue cell-based survival/proliferation assay, HEP2; conditions: Homo sapiens, HEp-2; HEP2 head & neck tumor cell line, 48 h
Procedure: as §1, §2

MDAMB231 = experiment: CellTiter-Blue cell-based survival/proliferation assay, MDAMB231; conditions: Homo sapiens, MDA-MB-231; MDAMB231 breast tumor cell line, 48 h
Procedure: as §1, §2

SW579 = experiment: CellTiter-Blue cell-based survival/proliferation assay, SW579; conditions: Homo sapiens; SW579 head & neck tumor cell line, 48 h
Procedure: as §1, §2

CLS354 = experiment: CellTiter-Blue cell-based survival/proliferation assay, CLS354; conditions: Homo sapiens, CLS-354; CLS354_4 head & neck tumor cell line, 48 h
Procedure: as §1, §2

MESSA = experiment: CellTiter-Blue cell-based survival/proliferation assay, MESSA; conditions: Homo sapiens, MES-SA; MESSA ovary tumor cell line, 48 h
Procedure: as §1, §2

HGC27 = experiment: CellTiter-Blue cell-based survival/proliferation assay, HGC27; conditions: Homo sapiens, HGC-27; HGC27 stomach tumor cell line, 48 h
Procedure: as §1, §2

A498 = experiment: CellTiter-Blue cell-based survival/proliferation assay, A498; conditions: Homo sapiens; A498 kidney tumor cell line, 48 h
Procedure: as §1, §2

[1] = system: panel of about 34 human tumor cell lines; experiment: Cell-based proliferation screening on panel of tumor cell lines; conditions: solid tumor cell line, cell line unknown, 48 h, read-out: IC50, solid tumor cell line of column 6 (last section of Table 3)
Procedure: Compounds of formula (I) were tested against a panel of about 34 human tumor cell lines representing 17 cancer type, namely leukemia (represented by 1 cell line), lymphoma (4 cell lines), myeloma (1 cell line), colorectal (2 cell lines), head and neck (3 cell lines), lung (3 cell lines), melanoma (2 cell lines), pancreas (2 cell lines), prostate (2 cell lines), ovary (2 cell lines) breast (2 cell lines), kidney (2 cell lines), stomach (2 cell lines), liver (2 cell lines), glioblastoma (2 cell lines), osteosarcoma (1 cell line), Ewing Sarcoma (1 cell line).
as §1, §2

ACHN = experiment: CellTiter-Blue cell-based survival/proliferation assay, ACHN; conditions: Homo sapiens; ACHN kidney tumor cell line, 48 h
Procedure: as §1, §2

OPM2 = experiment: CellTiter-Blue cell-based survival/proliferation assay, OPM2; conditions: Homo sapiens, OPM-2, Myeloma cell line OPM2, 48 h, read-out: Anti-tumoral activity (measured IC50) OPM2
Procedure: as §1, §2

PC3 = experiment: CellTiter-Blue cell-based survival/proliferation assay, PC3; conditions: Homo sapiens, PC-3; PC3 prostate tumor cell line, 48 h
Procedure: as §1, §2

CALU6 = experiment: CellTiter-Blue cell-based survival/proliferation assay, CALU6; conditions: Homo sapiens, Calu-6; CALU6 lung tumor cell line, 48 h
Procedure: as §1, §2

HCT116 = experiment: CellTiter-Blue cell-based survival/proliferation assay, HCT116; conditions: Homo sapiens, HCT-116; HCT116 colorectal tumor cell line, 48 h
Procedure: as §1, §2

HEPG2 = experiment: CellTiter-Blue cell-based survival/proliferation assay, HEPG2; conditions: Homo sapiens; HEPG2 liver tumor cell line, 48 h
Procedure: as §1, §2

HL60 = experiment: CellTiter-Blue cell-based survival/proliferation assay, HL60; conditions: Homo sapiens, HL-60, Leukemia cell line HL60, 48 h, read-out: Anti-tumoral activity (measured IC50) HL60
Procedure: as §1, §2

A549 = experiment: CellTiter-Blue cell-based survival/proliferation assay, A549; conditions: Homo sapiens; A549 lung tumor cell line, 48 h
Procedure: as §1, §2

BT20 = experiment: CellTiter-Blue cell-based survival/proliferation assay, BT20; conditions: Homo sapiens, BT-20; BT20 breast tumor cell line, 48 h
Procedure: as §1, §2

PANC1 = experiment: CellTiter-Blue cell-based survival/proliferation assay, PANC1; conditions: Homo sapiens, PANC-1; PANC_1 pancreas tumor cell line, 48 h
Procedure: as §1, §2

PLCPRF5 = experiment: CellTiter-Blue cell-based survival/proliferation assay, PLCPRF5; conditions: Homo sapiens, PLC-PRF-5; PLC_PRF5 liver tumor cell line, 48 h
Procedure: as §1, §2

H1299 = experiment: CellTiter-Blue cell-based survival/proliferation assay, H1299; conditions: Homo sapiens, NCI-H1299; H1299 lung tumor cell line, 48 h
Procedure: as §1, §2

BXPC3 = experiment: CellTiter-Blue cell-based survival/proliferation assay, BXPC3; conditions: Homo sapiens, BXPC-3; BXPC3 pancreas tumor cell line, 48 h
Procedure: as §1, §2

AGS = experiment: CellTiter-Blue cell-based survival/proliferation assay, AGS; conditions: Homo sapiens; AGS stomach tumor cell line, 48 h
Procedure: as §1, §2

TOV112D = experiment: CellTiter-Blue cell-based survival/proliferation assay, TOV112D; conditions: Homo sapiens; TOV112D ovary tumor cell line, 48 h
Procedure: as §1, §2

| Compound | pIC50 [1] | pIC50 (DLD1) | pIC50 (DU145) | pIC50 (HEP2) | pIC50 (MDAMB231) | pIC50 (SW579) | pIC50 (CLS354) | pIC50 (MESSA) | pIC50 (HGC27) | pIC50 (A498) | pIC50 (ACHN) | pIC50 (OPM2) | pIC50 (PC3) | pIC50 (CALU6) | pIC50 (HCT116) | pIC50 (HEPG2) | pIC50 (HL60) | pIC50 (A549) | pIC50 (BT20) | pIC50 (PANC1) | also measured |
| --- | --- | --- | --- | --- | --- | --- | --- | --- | --- | --- | --- | --- | --- | --- | --- | --- | --- | --- | --- | --- | --- |
| CCOCc1ccc(C)c(Nc2ncc(-c3ccc(N4CCN(CCOC)C4=O)cc3)o2)c1 [Example 054, 1-(4-(2-((5-(ethoxymethyl)-2-methylphenyl)amino)oxazol-5-yl)phenyl)-3-(2-methoxyethyl)imidazolidin-2-one] | < 6.00 | < 6.00 | < 6.00 | < 6.00 | < 6.00 | < 6.00 | < 6.00 | < 6.00 | < 6.00 | < 6.00 | < 6.00 | < 6.00 | < 6.00 | < 6.00 | < 6.00 | < 6.00 | < 6.00 | < 6.00 | < 6.00 | < 6.00 | pIC50 (PLCPRF5): < 6.00; pIC50 (H1299): < 6.00; pIC50 (BXPC3): < 6.00; pIC50 (AGS): < 6.00; pIC50 (TOV112D): < 6.00 |
| CCOCc1ccc(C)c(Nc2ncc(-c3ccc(N4CCNC4=O)nc3)o2)c1 [Example 055, 1-(5-(2-((5-(ethoxymethyl)-2-methylphenyl)amino)oxazol-5-yl)pyridin-2-yl)imidazolidin-2-one] | ≥ 7.00 | < 6.00 | < 6.00 | ≥ 7.00 | < 6.00 | ≥ 7.00 | ≥ 7.00 | < 6.00 | 6.00 to 6.30 | < 6.00 | < 6.00 | ≥ 7.00 | ≥ 7.00 | < 6.00 | ≥ 7.00 | < 6.00 | ≥ 7.00 | ≥ 7.00 | < 6.00 | < 6.00 | pIC50 (PLCPRF5): < 6.00; pIC50 (H1299): < 6.00; pIC50 (BXPC3): < 6.00; pIC50 (AGS): < 6.00; pIC50 (TOV112D): ≥ 7.00 |
| CCOCc1cc(Nc2ncc(-c3ccc(N4CCNC4=O)cc3)o2)cc(OCCOC)c1 [Example 056, 1-(4-(2-((3-(ethoxymethyl)-5-(2-methoxyethoxy)phenyl)amino)oxazol-5-yl)phenyl)imidazolidin-2-one] | ≥ 7.00 | < 6.00 | < 6.00 | ≥ 7.00 | < 6.00 | ≥ 7.00 | ≥ 7.00 | < 6.00 | < 6.00 | < 6.00 | 6.30 to 7.00 | ≥ 7.00 | ≥ 7.00 | < 6.00 | < 6.00 | < 6.00 | ≥ 7.00 | < 6.00 | < 6.00 | < 6.00 | pIC50 (PLCPRF5): < 6.00; pIC50 (H1299): < 6.00; pIC50 (BXPC3): < 6.00; pIC50 (AGS): < 6.00; pIC50 (TOV112D): ≥ 7.00 |

Second part, led by results:

| pIC50 [1] | Compound | pIC50 (DLD1) | pIC50 (DU145) | pIC50 (HEP2) | pIC50 (MDAMB231) | pIC50 (SW579) | pIC50 (CLS354) | pIC50 (MESSA) | pIC50 (HGC27) | pIC50 (A498) | pIC50 (ACHN) | pIC50 (OPM2) | pIC50 (PC3) | pIC50 (CALU6) | pIC50 (HCT116) | pIC50 (HEPG2) | pIC50 (HL60) | pIC50 (A549) | pIC50 (BT20) | pIC50 (PANC1) | also measured |
| --- | --- | --- | --- | --- | --- | --- | --- | --- | --- | --- | --- | --- | --- | --- | --- | --- | --- | --- | --- | --- | --- |
| 6.00 to 6.30 | CCOCc1ccc(C)c(Nc2ncc(-c3ccc(-c4ccn[nH]4)cc3)o2)c1 [Example 057, 5-(4-(1H-pyrazol-5-yl)phenyl)-N-(5-(ethoxymethyl)-2-methylphenyl)oxazol-2-amine] | < 6.00 | < 6.00 | 6.00 to 6.30 | < 6.00 | < 6.00 | 6.30 to 7.00 | < 6.00 | < 6.00 | < 6.00 | < 6.00 | 6.30 to 7.00 | 6.00 to 6.30 | < 6.00 | < 6.00 | < 6.00 | 6.30 to 7.00 | < 6.00 | < 6.00 | < 6.00 | pIC50 (PLCPRF5): < 6.00; pIC50 (H1299): < 6.00; pIC50 (BXPC3): < 6.00; pIC50 (AGS): < 6.00; pIC50 (TOV112D): ≥ 7.00 |
| 6.30 to 7.00 | CCOCc1ccc(C)c(Nc2ncc(-c3ccc(N4C(=O)NC[C@H]4C)nc3)o2)c1 [Example 058, (R)-1-(5-(2-((5-(ethoxymethyl)-2-methylphenyl)amino)oxazol-5-yl)pyridin-2-yl)-5-methylimidazolidin-2-one] | < 6.00 | < 6.00 | 6.30 to 7.00 | < 6.00 | < 6.00 | ≥ 7.00 | < 6.00 | < 6.00 | < 6.00 | < 6.00 | ≥ 7.00 | ≥ 7.00 | < 6.00 | < 6.00 | < 6.00 | ≥ 7.00 | < 6.00 | < 6.00 | < 6.00 | pIC50 (PLCPRF5): < 6.00; pIC50 (H1299): < 6.00; pIC50 (BXPC3): < 6.00; pIC50 (AGS): < 6.00; pIC50 (TOV112D): ≥ 7.00 |

— patent publication US10570122B2, “Compounds with anti-tumoral activity” (AB Science, priority 2015, dated 2020)
